Results as given in article PMC8694685 (RSC Advances, 2021).

How the values were obtained:
[1] = In vivo pharmacokinetics study, tail vein; set-up: species or system SD rats; details: SD, rat, plasma; intravenous, 17 mg kg^−1 Cur, n = 3
Procedure: Pharmacokinetics were studied in SD rats. SD rats were randomly divided into three groups with each group of three rats. […] Blood samples (0.5 mL) were extracted from the rat orbital sinus into heparinized centrifuge tubes at 3, 5, 10, 15, 30, 45, 60, 120 min and then centrifuged at 8000 rpm for 5 min to obtain the upper plasma. After that, Cur in plasma samples were extracted by adding ethyl acetate and vertexing for 5 min, then centrifuged at 5000 rpm for 5 min to get supernatant. Finally, the amount of Cur in the supernatant was measured by high-performance liquid chromatography (HPLC) based on established analytical method (SI). Various pharmacokinetic parameters (AUC, MRT, t1/2, Cmax, CL, and V) were calculated according to the analysis of DAS3.0 software.

[2] = tested on: liver fibrosis; assay: In vivo pharmacodynamic experiment, CCl4 liver fibrosis model; details: CCl4 mice, tail vein twice a week for eight weeks, Cur 17 mg kg^−1
Procedure: The mice were divided into five groups with five in each group randomly. The liver fibrosis model was established by injecting carbon tetrachloride (CCl4, 40% in olive oil, 1 mL kg^−1) intraperitoneally twice a week for four weeks. The mice were only administrated the same dosage of olive oil in control group. […] After treatment through veil tail, the mice were sacrificed and blood and livers were collected for the following study. After embedding in paraffin, the liver samples were cut into 5 μm slices. Then, liver slices were stained with hematoxylin–eosin staining (H&E) and Sirius Red staining solution for 2 h. After dehydration and fixation, the slices were observed and photographed by microscope.

[3] = tested on: red blood cells; assay: Hemolysis test; assay type: cell-based, mouse; details: 0.15–5 mg mL^−1, 37 °C, 1 hour
Procedure: The mixture was then centrifuged at 3000 rpm for 10 min. Finally, UV spectrophotometer was used to monitor the absorbance at 541 nm to investigate the hemolysis. Deionized water and 0.9% NaCl were used as the positive and negative control, respectively. The hemolysis ratio was calculated as following: [drawing 4] […]

[4] = In vitro release of curcumin, membrane dialysis; assay type: physicochemical; details: 30% ethanol in PBS pH7.4, 37 °C
Procedure: The membrane dialysis method was used for the drug release profile of CTPP–PEG–PCT. […] The end-sealed dialysis bag was placed in 30% ethanol in PBS (0.1 M, pH7.4) was used as dissolution medium at 37 °C, and medium was collected at determined time point. The amount of Cur released in the medium was monitored by UV-vis spectroscopy, and the experiments were repeated for three times.

AUC(0-inf) [1]: 5610 ng·h/mL
AUC(0-t) [1]: 5280 ng·h/mL
Cmax [1]: 12900 ± 1510 ng/mL
MRT [1]: 45.9 min
clearance [1]: 50 ± 6 mL/min/kg
half-life [1]: 48.1 ± 14.8 min
in vitro drug release behaviour [4]: released quickly
Structure (SMILES): COc1cc(/C=C/C(=O)CC(=O)/C=C/c2ccc(O)c(OC)c2)ccc1O [Cur, Curcumin]
serum levels of AST and ALT vs saline group [2]: decreased significantly
hemolysis ratio [3]: less than 5%
